In ChEMBL document CHEMBL5365435, “Design, Synthesis, and Biological Evaluation of Thioglucoside Analogues of Gliflozin as Potent New Gliflozin Drugs” (J Med Chem, 2023):
Calls of active or inactive are those of the source. The rule behind the calls is not given here.

How the values were obtained:
[1] = biological target: T1, Sodium/glucose cotransporter 2 (Homo sapiens, UniProt P31639); assay: Inhibition of SGLT2 (unknown origin)
T1 sequence (P31639 whole entry): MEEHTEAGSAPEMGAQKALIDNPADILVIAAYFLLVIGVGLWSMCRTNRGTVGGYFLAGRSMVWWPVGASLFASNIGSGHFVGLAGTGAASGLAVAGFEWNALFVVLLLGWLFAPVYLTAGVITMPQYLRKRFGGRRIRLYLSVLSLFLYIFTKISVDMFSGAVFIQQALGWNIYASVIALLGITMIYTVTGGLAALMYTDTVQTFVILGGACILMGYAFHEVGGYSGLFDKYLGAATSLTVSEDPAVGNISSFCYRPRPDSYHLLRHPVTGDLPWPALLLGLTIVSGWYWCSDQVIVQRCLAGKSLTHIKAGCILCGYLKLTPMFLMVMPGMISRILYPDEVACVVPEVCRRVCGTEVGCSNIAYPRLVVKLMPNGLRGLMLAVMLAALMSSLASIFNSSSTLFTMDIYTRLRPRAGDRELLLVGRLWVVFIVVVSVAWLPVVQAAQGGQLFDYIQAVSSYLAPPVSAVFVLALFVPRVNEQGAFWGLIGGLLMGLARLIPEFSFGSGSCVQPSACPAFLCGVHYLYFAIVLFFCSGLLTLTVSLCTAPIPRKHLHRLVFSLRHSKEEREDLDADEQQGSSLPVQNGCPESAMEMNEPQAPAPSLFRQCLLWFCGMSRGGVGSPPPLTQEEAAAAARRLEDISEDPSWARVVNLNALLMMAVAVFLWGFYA

[2] = test system: HEK293; assay: Cytotoxicity against HEK293 cells at 100 uM incubated for 24 hrs by MTT assay; format: toxicity, cell-based; conditions: human, hek293, 24 h
[3] = biological target: T2, Sodium/glucose cotransporter 2 (Homo sapiens) (UniProt P31639); assay: Inhibition of SGLT2 in HEK293 cells assessed as 2-NBDG uptake at 100 uM preincubated for 1 hr followed by 2-NBDG addition and measured after 1 hr relative to control; format: cell-based; conditions: time 2.0 hrs
T2 sequence (whole entry): T1 sequence (P31639 whole entry)

[4] = Tmax in mouse at 3 mg/kg, po by LC analysis; format: ADME, organism-based; conditions: in vivo
[5] = Cmax in mouse at 3 mg/kg, po by LC analysis; format: ADME, organism-based; set-up: dose 3 mg/kg, route po; conditions: in vivo
[6] = test system: Mus musculus; assay: Antidiabetic activity against C57BL/6J mouse assessed as decrease in blood glucose level at 3 mg/kg, po measured upto 8 hrs by glucometer analysis; format: functional, organism-based
[7] = AUCinfinity in mouse at 3 mg/kg, po by LC analysis; format: ADME, organism-based; set-up: dose 3 mg/kg, route po; conditions: in vivo
[8] = test system: Mus musculus; assay: Antidiabetic activity against C57BL/6J mouse assessed as decrease in renal glucose level at 3 mg/kg, po measured upto 8 hrs by glucometer analysis; format: functional, organism-based
[9] = Half life in mouse at 3 mg/kg, po by LC analysis; format: ADME, organism-based; conditions: in vivo
[10] = biological target: T2, Sodium/glucose cotransporter 2 (Homo sapiens); assay: Inhibition of SGLT2 (unknown origin) at 100 uM relative to control

## COc1ccc(Cc2ccccc2S[C@@H]2O[C@H](CO)[C@@H](O)[C@H](O)[C@H]2O)cc1
[1]
  IC50: 5.9 nM
[2]
  Activity: Non-Toxic
[3]
  inhibition: > 90%

## Cc1cccc(S[C@@H]2O[C@H](CO)[C@@H](O)[C@H](O)[C@H]2O)c1Cc1ccc(-c2ccc(F)cc2)s1
[1]
  IC50: 2.5 nM
[2]
  Activity: Non-Toxic
[3]
  inhibition: > 90%

## CCOc1ccc(Cc2cc(S[C@@H]3O[C@H](CO)[C@@H](O)[C@H](O)[C@H]3O)ccc2Cl)cc1
[2]
  Activity: Non-Toxic
[3]
  inhibition: 57%

## OC[C@H]1O[C@@H](Sc2cccc(Cl)c2Cc2ccc(O[C@H]3CCOC3)cc2)[C@H](O)[C@@H](O)[C@@H]1O
[4]
  Tmax: 1 h
[1]
  IC50: 2 nM
[5]
  Cmax: 4200 ng/mL
[6]
  Activity: Active
[2]
  Activity: Non-Toxic
[7]
  AUC(0-inf): 12800 ng·h/mL
[3]
  inhibition: > 90%
[8]
  Activity: Active
[9]
  half-life: 3.67 h

## OC[C@H]1O[C@@H](c2ccc(Cl)c(Cc3ccc(O[C@H]4CCOC4)cc3)c2)[C@H](O)[C@@H](O)[C@@H]1O
[6]
  Activity: Active
[8]
  Activity: Active

## CCOC(=O)OC[C@H]1O[C@@H](Oc2ccccc2Cc2ccc(OC)cc2)[C@H](O)[C@@H](O)[C@@H]1O [SERGLIFLOZIN ETABONATE]
[1]
  IC50: 7.5 nM

## OC[C@H]1O[C@@H](Sc2ccc(Cl)c(Cc3ccc(O[C@H]4CCOC4)cc3)c2)[C@H](O)[C@@H](O)[C@@H]1O
[2]
  Activity: Non-Toxic
[3]
  inhibition: 62%
[10]
  inhibition: 62%

## CCOc1ccc(Cc2c(Cl)cccc2S[C@@H]2O[C@H](CO)[C@@H](O)[C@H](O)[C@H]2O)cc1
[1]
  IC50: 2.6 nM
[2]
  Activity: Non-Toxic
[3]
  inhibition: > 90%

## COc1ccc(Cc2ccccc2O[C@@H]2O[C@H](CO)[C@@H](O)[C@H](O)[C@H]2O)cc1 [SERGLIFLOZIN A]
[1]
  IC50: 7.5 nM

## Cc1ccc([C@@H]2O[C@H](CO)[C@@H](O)[C@H](O)[C@H]2O)cc1Cc1ccc(-c2ccc(F)cc2)s1 [CANAGLIFLOZIN ANHYDROUS]
[1]
  IC50: 2.4 nM
[3]
  inhibition: > 90%

## Cc1ccc(S[C@@H]2O[C@H](CO)[C@@H](O)[C@H](O)[C@H]2O)cc1Cc1ccc(-c2ccc(F)cc2)s1
[2]
  Activity: Non-Toxic
[3]
  inhibition: 54%

## Cc1cc(O)c(C(=O)CCc2ccc3occc3c2)c(O[C@@H]2O[C@H](CO)[C@@H](O)[C@H](O)[C@H]2O)c1
[1]
  IC50: 4.4 nM
